Assay results taken from US20240252410A1, “COMPOUNDS FOR USE IN KERATIN TREATMENT” (CrossChem Limited, priority 2023, published 2024).

Experiments:
[1] = Hair tensile strength test (digital force gauge); details: for % Increase in tensile strength relative to control: control 100% DI water
Description: (§1) Hair tensile strength can be measured according to the following general method. “Test Compound” can be any compound described herein. • 1. Collect about 3 hair strands from tress; • 2. Clamp both ends of a single hair strand and pull taut; • 3. Line up ruler with hair strand and cut a 2.75 cm section; • 4. Repeat steps 2-3 until 30 segments are produced; • 5. Create a specific w/w % solution of deionized water and Test Compound (e.g., Compound (1)) in 50 ml beaker; • 6. Saturate the hair for a specific amount of time in the solution, then remove and dry for 30 minutes; • 7. Using a 4 decimal precision balance, weigh all hairs at once and calculate the average; • 8. Insert hair into the digital force gauge; • 9. Separate the two clamps until the hair has broken into two separate pieces; and • 10. Note the maximum force required to break the hair as well as the distance the digital force gauge has moved.
(§2) Control experiments can also be conducted according to the procedure described above, for example by omitting Test Compound from the solution or replacing Test Compound with compound for comparison (e.g., glycolic acid).

[2] = Hair elongation percentage test; details: for % Increase in elongation percentage relative to control: control 100% DI water
Description: as §1, §2

[3] = Elongation of bleached hair at break stress (Formulation 1); details: 5 w/w % solution in DI water
Description: A combination formulation (Formulation 1) comprising Compound (1) and glycolic acid as an aqueous mixture was tested. Formulation 1 comprises a 1:1 ratio (by weight) of Compound (1) to glycolic acid. To prepare Formulation 1, a mixture containing 50 w/w % Compound (1) and 50 w/w % glycolic acid (crystalline) was prepared (Mixture A). Mixture A was diluted with deionized (DI) water (aqua) until the solution was 5 w/wt % Mixture A.
Formulation 1 was independently analyzed to determine whether elongation of bleached hair at break stress increased compared to both control and glycolic acid solutions. The glycolic acid solution was a 5 w/w % glycolic acid solution in DI water. The control was DI water alone.

[4] = 1 w/w % solution in deionized water
[5] = 2.5 w/w % solution in deionized water

Structure (SMILES)	Tensile strength (Gf/Denier) [1, 4]	% Increase in tensile strength relative to control ([1]; 1 w/w % solution)	Tensile strength (Gf/Denier) [1, 5]	Tensile strength of hair compared to glycolic acid (in words) ([1]; 2.5 w/w % solution vs 2.5 w/w % glycolic acid, FIG. 2)	% Increase in tensile strength relative to control ([1]; 2.5 w/w % solution)	Tensile strength of hair relative to control (in words) ([1]; control hair treated 100% DI water, FIG. 1)	Elongation % [2, 4]	% Increase in elongation percentage relative to control ([2]; 1 w/w % solution)	Elongation % [2, 5]	Elongation percentage of hair compared to glycolic acid (in words) ([2]; 2.5 w/w % solution vs 2.5 w/w % glycolic acid, FIG. 4)	% Increase in elongation percentage relative to control ([2]; 2.5 w/w % solution)	Elongation percentage of hair relative to control (in words) ([2]; control hair treated 100% DI water, FIG. 3)	Mean Elongation % [3]	Difference from Control (%) ([3]; control DI water)
N[C@@H](CO)C(=O)OCC(=O)O [Compound (1)]	1.210 gf/denier	16.9%	1.490 gf/denier	significantly increases tensile strength of hair as compared to glycolic acid	43.9%	significantly increases tensile strength of hair, relative to control	25.4%	0.67%	29.9%	significantly increases elongation percentage of hair	18.51%	increases elongation percentage of hair		
O=C(O)CO [Glycolic Acid, glycolic acid, reference compound]			1.219 gf/denier		17.8%				26.71%		5.87%		55.3%	7.38%
